Where “and” joins values, the source holds several entries; their conditions need not be identical. Identical values can stand only once. Where only a bound is given, the exact number is not on record here.

The target of data set [1] is T1, soluble epoxide hydrolase (sEH) (Homo sapiens, UniProt P34913).
T1 construct: purchased Cayman (Ann Arbor, MI, USA) 10011669
T1 sequence (P34913 1-555): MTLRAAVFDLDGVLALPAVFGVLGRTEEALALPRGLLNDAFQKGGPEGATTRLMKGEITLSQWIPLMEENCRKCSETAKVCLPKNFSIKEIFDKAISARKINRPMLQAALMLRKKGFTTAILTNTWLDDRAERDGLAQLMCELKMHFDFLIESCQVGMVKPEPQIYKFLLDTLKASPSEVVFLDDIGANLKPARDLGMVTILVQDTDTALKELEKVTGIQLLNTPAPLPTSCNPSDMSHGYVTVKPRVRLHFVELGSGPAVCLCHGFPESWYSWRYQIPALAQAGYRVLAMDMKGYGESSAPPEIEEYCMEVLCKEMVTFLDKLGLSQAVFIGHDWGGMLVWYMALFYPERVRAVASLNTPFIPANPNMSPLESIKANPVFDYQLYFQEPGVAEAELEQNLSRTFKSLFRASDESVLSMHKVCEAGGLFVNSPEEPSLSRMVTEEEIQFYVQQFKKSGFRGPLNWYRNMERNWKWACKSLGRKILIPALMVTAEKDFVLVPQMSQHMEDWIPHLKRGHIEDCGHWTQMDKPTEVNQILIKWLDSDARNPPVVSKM
In words: sEH assay (PHOME substrate, fluorescence). To be noted: triplicated experiments; 37 °C, pH 7.0, PHOME substrate; read-out: IC50 Value, inhibitory activity on sEH. The data set is classed as biochemical. As for the experimental part:
The inhibitory activity of each concentration of compound was calculated based on the difference in enzyme products with and without the presence of the compound using Equation (1). […] To calculate the half-maximal inhibitory concentration of the inhibitors (IC50), inhibition rate values were fitted using Equation (2).
(§1) The assays were carried out at 37 °C in 0.025-M bis-tris-HCL buffer, pH 7.0, containing 0.1% Bovine Serum Albumin B. PHOME (~2.6 μM) was used as a substrate. The final volume of tests was […] in ~10 ng/mL sEH. The products were monitored at 330 nm of excitation and 465 nm emission for 40 min.
The inhibition rate was calculated according to the following equations:Inhibition effect rate (%) = [(ΔC − ΔS)/ΔC] × 100(1) where ΔC and ΔS represent the gap of control and inhibitor during reaction, respectively. y = y0 + [(a × x)/(b + x)](2) where “y0” is the point on the axis of ordinates, “a” denotes the difference between the maximum and minimum values, and “b” refers to the “x” value at 50%.

Data set [2] addresses T1, soluble epoxide hydrolase (sEH). Nature of the data set: sEH enzyme kinetic study (Lineweaver-Burk and Dixon plots). To be noted: for Ki: Dixon plots, read-out: ki (inhibition constant); for Binding Mode: Lineweaver-Burk plots. The data set is classed as biochemical. As for the experimental part: The enzyme kinetic study was performed to find the binding position of the inhibitor into sEH. The initial velocity (v0) for the three different concentrations of inhibitors was calculated relative to the substrate concentrations (1.1, 1.5, 2.2, 3.1, 6.2, and 12.5 μM). The inverse of these concentrations and v0 values were used to construct Lineweaver-Burk plots.
As presented in Figure 2F–I and Table 1, the inhibition constant (ki) values were calculated by Dixon plots. Inhibitors 1–4 were calculated to be ki values ranging from 2.9 ± 0.8 μM to […]. Among them, inhibitor 4 had the strongest ki value of 2.9 ± 0.8 μM.
as §1

Details of data set [3]: method as in PMID 19794443. To be noted: cited from earlier work.

Regarding `C[C@@H]1CC[C@]2(C(=O)O)CC[C@]3(C)C(=CC[C@@H]4[C@@]5(C)CC(=O)[C@H](O)C(C)(C)[C@@H]5CC[C@]43C)[C@@H]2[C@]1(C)O` [Compound 4, 2-oxopomolic acid], the IC50 (usually the concentration at which inhibition is half-maximal) in data set [1] is < 50 µM and 11.4 µM. In addition, in data set [2], the Ki (commonly a measure of affinity in units of concentration, obtained from inhibition or displacement) was 2.9 µM and the “Binding Mode” value is “Noncompetitive”.
Consider `O=c1c(OC2O[C@H](CO)[C@@H](O)[C@@H]2O)c(-c2ccc(O)c(O)c2)oc2cc(O)cc(O)c12` (stereo in doubt) [Compound 1, quercetin 3-O-arabinofuranoside], for which the IC50 in data set [1] was < 50 µM and 39.3 µM. In data set [2], the Ki was determined as 39.5 µM and the “Binding Mode” value is “Mixed”.
Take `C[C@H]1[C@H](C)CC[C@]2(C(=O)O)CC[C@]3(C)C(=CC[C@@H]4[C@@]5(C)C[C@@H](O)[C@H](O)C(C)(C)[C@@H]5CC[C@]43C)[C@H]12` [Compound 3, corosolic acid]: the IC50 in data set [1] stood at 51.3 ± 4.9 µM. In data set [2], the Ki was 34.6 µM and the “Binding Mode” value is given as “Noncompetitive”.
For `C[C@H]1[C@H](C)CC[C@]2(C(=O)O)CC[C@]3(C)C(=CC[C@@H]4[C@@]5(C)CC[C@H](O)C(C)(C)[C@@H]5CC[C@]43C)[C@H]12` [Compound 2, ursolic acid], in that order: 84.5 ± 9.5 µM, 38.5 µM and “Noncompetitive”.
In the case of `O=C(O)CCCCCCCCCCCNC(=O)NC12CC3CC(CC(C3)C1)C2` [AUDA, 12-(3-adamantan-1-yl-ureido)dodecanoic acid], in data set [3], the solubility entry is “low solubility”.

The record behind these values is paper PMC7576482, “Inhibitory Activity of Quercetin 3-O-Arabinofuranoside and 2-Oxopomolic Acid Derived from Malus domestica on Soluble Epoxide Hydrolase” (Molecules, 2020).
